Source: patent US11278522B2, “Use of methadone metabolites for treatment of anxiety and depression” (Georgetown University, priority 2015, dated 2022)
“And” between values parts separate entries of the source, which are not always exact repeats. Identical values can stand only once. Counter-ions that a name gives are not always drawn.

Legend:
[1] = biological target: T1, human α4β2 nAChRs (Homo sapiens, UniProt P17787+P43681); assay: 86Rb+ efflux assay, inhibition of nicotine-stimulated efflux, α4β2 nAChRs; assay type: cell-based; conditions: 86Rb+ efflux stimulated by 100 μM nicotine; HEK cells YXα4β2H1; mean ± standard error
T1 construct: expressed in transfected cells
Procedure: (§1) Stable cell lines and ^86Rb^+ efflux Assay. The cell lines expressing human α4β2 (YXα4β2H1) and α3β4 (YXα3β4H1) nAChRs were established recently (Xiao el al., 2012). These cell lines were maintained in minimum essential medium (MEM) supplemented with 10% fetal bovine serum, 100 units/mL penicillin G, […] streptomycin and selective antibiotics at 37° C. with 5% CO2 in a humidified incubator. Tissue culture medium and antibiotics were obtained from Invitrogen Corporation (Carlsbad, Calif.), unless otherwise stated. Fetal bovine serum was obtained from Gemini Bio-Products (Woodland, Calif.).
(§2) Functional properties of compounds at nAChRs expressed in the transfected cells were measured using ^86Rb^+ efflux assays as described previously (Xiao et al., 1998, 2001). In brief, cells were plated into 24-well plates coated with poly-D-lysine. The plated cells were grown at 37° C. for 18 to 24 hour to reach 85-95% confluence. The cells were then incubated in growth medium (0.5 mL/well) containing ^86Rb^+ (2 μCi/mL) for 4 hour at 37° C. The loading mixture was then aspirated, and the cells were washed four times with 1 mL buffer (15 mM HEPES, 140 mM NaCl, 2 mM KCl, 1 mM MgSO4, 1.8 mM CaCl2), 11 mM Glucose, pH 7.4). One mL of buffer with or without compounds to be tested was then added to each well. After incubation for 2 min, the assay buffer was collected for measurements of ^86Rb^+ released from the cells. Cells were then lysed by adding 1 mL of 100 mM NaOH to each well, and the lysate was collected for determination of the amount of ^86Rb^+ that was in the cells at the end of the efflux assay. Radioactivity of assay samples and lysates was measured by liquid scintillation counting. Total loading (cpm) was calculated as the sum of the assay sample and the lysate of each well, and the amount of ^86Rb^+ efflux was expressed as a percentage of ^86Rb^+ loaded. Stimulated ^86Rb^+ efflux was defined as the difference between efflux in the presence and absence of nicotine. […] IC50 values were determined by nonlinear least-squares regression analyses (GraphPad. San Diego, Calif.).

[2] = Forced swim test (rats); assay type: in vivo, rat; conditions: three doses, 5 min test, vehicle 81 s
Procedure: Forced Swim Test (FST; Rats) The FST in rats was conducted as previously described (Porsolt et al., 2001). On day 1, rats were placed in a cylindrical chamber (20 cm in diameter, 46 cm deep) filled to a height of 38 cm with room temperature water for 15 min. After the completion of this pre-exposure test, animals were removed from the apparatus, dried with towels and placed under a heat lamp for ˜30 min. […] Animals were treated with these same doses again 20 h and 23 h after the initial dose. Twenty-four h after the pre-exposure, animals were re-introduced to the apparatus and video-recorded for 5 min. Immobility was hand-scored for each video record by a treatment blind observer (P.A.F.) using ANYmaze (Stoelting) to record the data.

[3] = Eyelid ptosis assessment (rats); assay type: in vivo, rat; conditions: 5 mg/kg
Procedure: Ptosis was assessed as previously described (Rubin et al., 1957). Each animal was photographed while gently restrained by hand. Photographs were analyzed by a treatment blind observer (P.A.F.) and assigned a score of 0 (no ptosis, eye completely open), 1 (mild, eye partially closed), 2 (moderate, eye half closed), 3 (severe, eye […] closed), or 4 (complete, eye completely closed).

[4] = biological target: T2, human α3β4 nAChRs (Homo sapiens, UniProt P30926+P32297); assay: 86Rb+ efflux assay, inhibition of nicotine-stimulated efflux, α3β4 nAChRs; assay type: cell-based; conditions: 86Rb+ efflux stimulated by 100 μM nicotine; HEK cells YXα3β4H1; mean ± standard error
T2 construct: expressed in transfected cells
Procedure: as §1, with “The cell lines expressing human α4β2 (YXα4β2H1) and α3β4 (YXα3β4H1) nAChRs were established recently (Xiao el al., 2012).” left out
as §2, with “In” for “Functional properties of compounds at nAChRs expressed in the transfected cells were measured using ^86Rb^+ efflux assays as described previously (Xiao et al., 1998, 2001). In”, “The plated cells were grown at 37° C. for 18 to 24 hour to reach 85-95% confluence.” left out

[5] = Marble burying (mice); assay type: in vivo, mouse; conditions: 15 min test, vehicle mean 11 of 20
Procedure: Marble Burying (Mice) After a 1 h period of acclimation to the testing room, the mice (n=6-10 per group) were injected i.p. with saline, EDDP, EMDP, or CDP at the doses indicated. Ten minutes later, the mice were placed individually in small cages (26×20×14 cm), in which twenty marbles had been equally distributed on top of mouse bedding (5-cm deep), and a wire lid was placed on top of the cage. Mice were left undisturbed for 15 min, after which time the number of buried marbles (i.e., those covered by bedding three-quarters or more) was counted.

[6] = test system: opiate receptors; assay: [3H]-naloxone binding competition in rat forebrain membranes
[7] = Open field locomotor activity (rats); assay type: in vivo, rat; conditions: 10 mg/kg s.c., 30 min after injection
Procedure: Locomotor Activity (Rats) Locomotor activity was measured 30 minutes after sc injection of test compound. Animals were placed in a Plexiglass enclosure (16″×16″×16″, TruScan Arena, Coulbourn Instruments, Whitehall, Pa.) with 770 lux illumination over the center of the arena. Animals were allowed to explore for 20 min, during which total distance traveled was recorded using ANYmaze software (Stoelting Co., Wood Dale, Ill.), as previously described (Forcelli et al., 2012).

[8] = Elevated plus maze (rats); assay type: in vivo, rat
Procedure: Elevated Plus Maze (Rats) Plus maze testing was performed and scored as previously described (Forcelli and Heinrichs, 2008; Forcelli et al., 2012), in a standard grey rat elevated plus maze (50 cm arms, elevated 40 cm off the ground [Stoelting Co., Wood Dale, Ill.]). Testing was conducted under 20 lux red light, 30 min after drug administration. The number of arm entries and time spent in open and closed arms were recorded using ANYmaze (Stoelting Co, Wood Dale, Ill.).

[9] = Forced swim test (mice); assay type: in vivo, mouse; conditions: 6 min test
Procedure: Forced Swim Test (FST; Mice) The FST in mice was conducted as previously described [11]. Briefly, 10 min following i.p. injection of saline, EDDP or EMDP, mice were placed in Plexiglas cylinders filled with water (25° C.) for 6 min while being videotaped. The forced swim score for the entire 6 min test was assessed using the Cleversystems videotracking system (CleverSys) and confirmed with visual scoring by a trained observer. A mouse was judged to be immobile when making only those movements necessary to keep its head above water.

[10] = biological target: rat α3β4 nAChR channels (Rattus norvegicus, UniProt P04757+P12392); conditions: Xiao et al., 2001; cited from earlier work
Chain of rat α3β4 nAChR channels (P04757 26-499): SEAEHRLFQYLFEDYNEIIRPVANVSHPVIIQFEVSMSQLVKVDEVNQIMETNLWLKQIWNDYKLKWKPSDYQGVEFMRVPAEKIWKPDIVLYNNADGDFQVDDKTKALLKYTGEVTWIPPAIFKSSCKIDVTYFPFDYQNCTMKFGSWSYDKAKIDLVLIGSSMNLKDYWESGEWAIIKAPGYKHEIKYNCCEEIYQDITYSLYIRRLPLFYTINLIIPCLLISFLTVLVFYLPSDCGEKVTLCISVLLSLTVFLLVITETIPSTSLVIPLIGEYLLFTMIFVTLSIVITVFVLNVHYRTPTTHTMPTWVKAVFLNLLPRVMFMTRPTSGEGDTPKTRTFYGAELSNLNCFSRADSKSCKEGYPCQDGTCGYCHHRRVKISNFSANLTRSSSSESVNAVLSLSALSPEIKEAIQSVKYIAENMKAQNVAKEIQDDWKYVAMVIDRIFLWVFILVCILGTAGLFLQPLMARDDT
Chain of rat α3β4 nAChR channels (P12392 21-495): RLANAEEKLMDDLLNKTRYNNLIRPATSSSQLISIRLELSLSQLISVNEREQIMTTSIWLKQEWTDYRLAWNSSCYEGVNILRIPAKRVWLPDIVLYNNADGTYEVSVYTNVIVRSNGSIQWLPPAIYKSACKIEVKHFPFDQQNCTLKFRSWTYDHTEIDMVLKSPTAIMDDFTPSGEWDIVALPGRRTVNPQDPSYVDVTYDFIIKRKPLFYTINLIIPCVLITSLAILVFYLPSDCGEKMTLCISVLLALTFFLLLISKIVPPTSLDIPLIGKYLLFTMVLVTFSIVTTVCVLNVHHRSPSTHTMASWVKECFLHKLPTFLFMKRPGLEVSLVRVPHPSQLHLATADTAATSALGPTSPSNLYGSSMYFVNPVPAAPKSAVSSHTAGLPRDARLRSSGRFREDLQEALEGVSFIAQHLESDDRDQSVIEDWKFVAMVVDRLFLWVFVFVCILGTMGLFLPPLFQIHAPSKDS

T2 sequence (P32297 32-505): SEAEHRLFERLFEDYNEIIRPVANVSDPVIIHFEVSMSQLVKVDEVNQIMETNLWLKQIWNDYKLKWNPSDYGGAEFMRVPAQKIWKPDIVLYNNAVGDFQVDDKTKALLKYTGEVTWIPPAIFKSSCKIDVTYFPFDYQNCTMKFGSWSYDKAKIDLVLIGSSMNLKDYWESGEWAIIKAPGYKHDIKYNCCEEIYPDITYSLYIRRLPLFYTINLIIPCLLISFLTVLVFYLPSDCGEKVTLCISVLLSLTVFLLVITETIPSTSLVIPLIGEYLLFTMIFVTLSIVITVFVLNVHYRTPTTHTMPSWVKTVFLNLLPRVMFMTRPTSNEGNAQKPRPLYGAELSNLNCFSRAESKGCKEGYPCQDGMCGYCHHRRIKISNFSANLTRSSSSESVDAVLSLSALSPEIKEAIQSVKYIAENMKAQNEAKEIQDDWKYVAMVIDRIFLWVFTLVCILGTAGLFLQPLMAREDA
T2 sequence (P30926 22-498): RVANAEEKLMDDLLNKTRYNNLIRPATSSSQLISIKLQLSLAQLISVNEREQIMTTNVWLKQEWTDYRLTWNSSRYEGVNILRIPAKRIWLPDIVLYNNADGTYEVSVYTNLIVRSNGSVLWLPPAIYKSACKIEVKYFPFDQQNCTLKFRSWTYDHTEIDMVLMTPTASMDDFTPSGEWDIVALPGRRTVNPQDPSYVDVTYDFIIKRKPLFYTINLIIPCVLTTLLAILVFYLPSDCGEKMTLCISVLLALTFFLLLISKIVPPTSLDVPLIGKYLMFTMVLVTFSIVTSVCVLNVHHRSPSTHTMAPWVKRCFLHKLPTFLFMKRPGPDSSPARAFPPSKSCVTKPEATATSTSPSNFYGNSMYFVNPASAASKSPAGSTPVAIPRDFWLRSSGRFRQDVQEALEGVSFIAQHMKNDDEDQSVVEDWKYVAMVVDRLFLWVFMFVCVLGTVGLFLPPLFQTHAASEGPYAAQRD
T1 sequence (P43681 29-627 limits assumed): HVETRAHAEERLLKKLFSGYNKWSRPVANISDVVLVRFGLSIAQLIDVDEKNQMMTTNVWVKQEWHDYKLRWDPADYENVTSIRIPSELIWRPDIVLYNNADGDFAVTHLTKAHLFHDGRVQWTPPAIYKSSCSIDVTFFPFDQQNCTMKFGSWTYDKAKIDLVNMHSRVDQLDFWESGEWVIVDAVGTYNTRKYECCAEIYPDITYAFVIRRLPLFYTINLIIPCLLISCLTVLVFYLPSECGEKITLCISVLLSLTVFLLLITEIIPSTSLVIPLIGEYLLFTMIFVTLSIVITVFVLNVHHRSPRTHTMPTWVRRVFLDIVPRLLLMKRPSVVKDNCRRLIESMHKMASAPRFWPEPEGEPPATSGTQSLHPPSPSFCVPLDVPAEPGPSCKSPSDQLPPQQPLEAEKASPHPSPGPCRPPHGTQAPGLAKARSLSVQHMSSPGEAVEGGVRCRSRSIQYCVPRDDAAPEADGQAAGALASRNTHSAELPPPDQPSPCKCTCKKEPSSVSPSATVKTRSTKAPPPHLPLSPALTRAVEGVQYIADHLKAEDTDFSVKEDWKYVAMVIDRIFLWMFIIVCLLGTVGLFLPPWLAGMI
T1 sequence (P17787 26-502): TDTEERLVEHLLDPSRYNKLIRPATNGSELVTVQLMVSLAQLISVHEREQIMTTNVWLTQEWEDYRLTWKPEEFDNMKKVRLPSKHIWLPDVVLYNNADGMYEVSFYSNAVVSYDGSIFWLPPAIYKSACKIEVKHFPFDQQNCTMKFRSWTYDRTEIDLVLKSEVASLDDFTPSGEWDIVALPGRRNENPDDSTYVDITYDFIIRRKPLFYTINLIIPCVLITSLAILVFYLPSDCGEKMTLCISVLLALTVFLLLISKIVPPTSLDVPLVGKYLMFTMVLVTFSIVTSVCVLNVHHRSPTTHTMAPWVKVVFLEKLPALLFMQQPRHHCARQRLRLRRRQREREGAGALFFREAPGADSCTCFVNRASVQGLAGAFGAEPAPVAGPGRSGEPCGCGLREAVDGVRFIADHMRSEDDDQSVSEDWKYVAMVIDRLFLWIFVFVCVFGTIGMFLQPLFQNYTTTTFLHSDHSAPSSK

CNC1(C)C2CCC(C2)C1(C)C (centres unmarked) [Mecamylamine, Mecamylamine HCl]
IC50 [1]: 1 ± 0.3 µM | immobile time in forced swim test vs vehicle ([2]; 5 mg/kg s.c.): reduced immobile time | eyelid ptosis quantified over 3 h [3]: produced ptosis in a time-dependent manner | onset of ptosis after injection [3]: ≤ 15 min | ptosis observed during forced swim tests [3]: obvious ptosis

CC=C1N(C)C(C)CC1(c1ccccc1)c1ccccc1 (single isomer, unassigned; (+)) [(+)-EDDP, 2-ethylidene-1,5,dimethyl-3,3-diphenylpyrrolidine perchlorate]
IC50 [1]: 1.8 ± 0.6 µM | IC50 [4]: 0.9 ± 0.09 µM

CCC1=NC(C)CC1(c1ccccc1)c1ccccc1 (single isomer, unassigned; (-)) [(−)-EMDP, 2-ethyl-5-methyl-3,3-diphenyl-1-pyrroline hydrochloride]
IC50 [1]: 19 ± 4 µM | IC50 [4]: 7 ± 1.2 µM

CN[C@H]1CC[C@@H](c2ccc(Cl)c(Cl)c2)c2ccccc21 [sertraline, sertraline HCl, reference compound]
immobile time in forced swim test vs vehicle ([2]; 20 mg/kg s.c.): significantly reduced immobile time

CNC1=Nc2ccc(Cl)cc2C(c2ccccc2)=[N+]([O-])C1 [CDP, chlordiazepoxide HCl, reference compound]
number of marbles buried vs vehicle ([5]; 10 mg/kg i.p.): buried significantly fewer marbles

CC=C1N(C)C(C)CC1(c1ccccc1)c1ccccc1 (single isomer, unassigned; (-)) [(−)-EDDP, 2-ethylidene-1,5,dimethyl-3,3-diphenylpyrrolidine perchlorate]
IC50 [1]: 1.4 ± 0.2 µM | IC50 [4]: 0.7 ± 0.06 µM

CCC1=NC(C)CC1(c1ccccc1)c1ccccc1 (single isomer, unassigned; (+)) [(+)-EMDP, 2-ethyl-5-methyl-3,3-diphenyl-1-pyrroline hydrochloride]
IC50 [1]: 24 ± 5 µM | IC50 [4]: 7.4 ± 2.1 µM

CC=C1N(C)C(C)CC1(c1ccccc1)c1ccccc1 (racemic) [EDDP, 2-ethylidene-1,5-dimethyl-3,3-diphenylpyrrolidine]
apparent affinity, fold lower than that of methadone ([6]; rat forebrain [3H]-naloxone binding): ~83 fold and 84 fold | fraction of [3H]-naloxone binding sites competed for ([6]; rat forebrain membranes): nearly all of the binding sites | Ki ([6]; rat forebrain membranes, 2 nM [3H]-naloxone, single-site model): 0.918 µM | open field locomotor activity [7]: neither EDDP nor EMDP significantly altered | mean duration in the open arms of the elevated plus maze ([8]; 10 mg/kg s.c., 30 min after drug, vehicle 104 s): 80 s | percentage of entries made into the open arms of the plus maze ([8]; vs vehicle): the groups did not differ | latency to first entry in the open arms ([8]; vs vehicle (data not shown)): did not differ as a function of treatment group | number of marbles buried vs vehicle ([5]; 5 mg/kg i.p.): buried significantly fewer marbles | number of marbles buried vs vehicle ([5]; 10 mg/kg i.p.): did not reach statistical significance | immobile time in forced swim test vs vehicle ([2]; 10 mg/kg s.c.): without effect | duration of immobility in forced swim test vs vehicle ([9]; 1 mg/kg i.p.): did not produce a significant effect | duration of immobility in forced swim test vs vehicle ([9]; 5 mg/kg i.p.): did not produce a significant effect | duration of immobility in forced swim test vs vehicle ([9]; 10 mg/kg i.p.): did not produce a significant effect | block of rat α3β4 nAChR channels [10]: potently block
